Among the targets are D(3) dopamine receptor (Homo sapiens, UniProt P35462); D(1A) dopamine receptor (Homo sapiens, UniProt P21728); Histamine H3 receptor (Homo sapiens, UniProt Q9Y5N1); Mu-type opioid receptor (Homo sapiens, UniProt P35372).
The target in experiment [1] is Voltage-gated inwardly rectifying potassium channel KCNH2 (Homo sapiens, UniProt Q12809). It is filed as functional. As to conditions: read-out: AC50.
The target in the next experiment is T1, Thromboxane A2 receptor (Homo sapiens, UniProt P21731).
T1 sequence (P21731 whole entry): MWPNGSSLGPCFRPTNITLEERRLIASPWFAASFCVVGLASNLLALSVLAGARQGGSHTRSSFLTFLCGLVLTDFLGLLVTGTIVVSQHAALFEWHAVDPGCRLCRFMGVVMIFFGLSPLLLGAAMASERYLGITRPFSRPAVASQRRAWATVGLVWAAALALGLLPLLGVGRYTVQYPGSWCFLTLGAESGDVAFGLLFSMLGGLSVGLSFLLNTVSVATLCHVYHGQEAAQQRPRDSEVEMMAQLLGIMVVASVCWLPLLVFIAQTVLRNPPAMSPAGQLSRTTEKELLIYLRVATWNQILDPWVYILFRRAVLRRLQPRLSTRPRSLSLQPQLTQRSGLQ
It is filed as functional, cell-based.

The target of experiment [2] is Prostaglandin G/H synthase 1 (Homo sapiens, UniProt P23219). It is filed as functional.
Sequence of Prostaglandin G/H synthase 1 (P23219 whole entry): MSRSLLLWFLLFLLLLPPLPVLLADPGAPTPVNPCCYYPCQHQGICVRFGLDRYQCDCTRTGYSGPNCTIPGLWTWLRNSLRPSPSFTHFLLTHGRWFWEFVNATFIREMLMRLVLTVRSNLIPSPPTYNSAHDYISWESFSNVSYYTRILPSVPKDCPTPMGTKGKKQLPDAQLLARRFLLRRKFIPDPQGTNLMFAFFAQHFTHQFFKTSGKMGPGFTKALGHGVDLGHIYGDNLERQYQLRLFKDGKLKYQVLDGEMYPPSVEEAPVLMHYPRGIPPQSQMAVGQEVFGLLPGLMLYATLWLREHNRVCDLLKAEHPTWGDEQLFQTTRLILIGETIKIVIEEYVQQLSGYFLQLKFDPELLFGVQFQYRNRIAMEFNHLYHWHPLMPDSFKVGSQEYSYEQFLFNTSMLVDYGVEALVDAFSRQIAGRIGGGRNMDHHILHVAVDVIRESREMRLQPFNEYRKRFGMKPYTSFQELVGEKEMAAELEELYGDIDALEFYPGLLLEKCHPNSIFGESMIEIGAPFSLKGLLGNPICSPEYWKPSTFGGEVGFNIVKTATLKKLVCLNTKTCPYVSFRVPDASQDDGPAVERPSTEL
The target in the next experiment is Prothrombin (Homo sapiens, UniProt P00734). It is filed as functional.
For another experiment, the target named is T2, Adenosine receptor A3 (Homo sapiens, UniProt P0DMS8).
T2 sequence (P0DMS8 whole entry): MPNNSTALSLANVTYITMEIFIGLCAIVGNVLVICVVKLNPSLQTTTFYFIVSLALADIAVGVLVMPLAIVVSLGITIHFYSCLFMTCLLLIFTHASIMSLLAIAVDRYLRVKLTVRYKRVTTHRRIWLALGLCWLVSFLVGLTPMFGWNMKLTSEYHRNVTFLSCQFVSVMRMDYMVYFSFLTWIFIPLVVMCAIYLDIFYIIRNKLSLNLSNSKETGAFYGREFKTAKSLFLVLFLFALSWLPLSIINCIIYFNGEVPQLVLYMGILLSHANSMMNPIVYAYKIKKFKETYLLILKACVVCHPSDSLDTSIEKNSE

In experiment [3] the target is 3',5'-cyclic-AMP phosphodiesterase 4A (Homo sapiens, UniProt P27815). It is filed as functional.
Sequence of 3',5'-cyclic-AMP phosphodiesterase 4A (P27815 whole entry): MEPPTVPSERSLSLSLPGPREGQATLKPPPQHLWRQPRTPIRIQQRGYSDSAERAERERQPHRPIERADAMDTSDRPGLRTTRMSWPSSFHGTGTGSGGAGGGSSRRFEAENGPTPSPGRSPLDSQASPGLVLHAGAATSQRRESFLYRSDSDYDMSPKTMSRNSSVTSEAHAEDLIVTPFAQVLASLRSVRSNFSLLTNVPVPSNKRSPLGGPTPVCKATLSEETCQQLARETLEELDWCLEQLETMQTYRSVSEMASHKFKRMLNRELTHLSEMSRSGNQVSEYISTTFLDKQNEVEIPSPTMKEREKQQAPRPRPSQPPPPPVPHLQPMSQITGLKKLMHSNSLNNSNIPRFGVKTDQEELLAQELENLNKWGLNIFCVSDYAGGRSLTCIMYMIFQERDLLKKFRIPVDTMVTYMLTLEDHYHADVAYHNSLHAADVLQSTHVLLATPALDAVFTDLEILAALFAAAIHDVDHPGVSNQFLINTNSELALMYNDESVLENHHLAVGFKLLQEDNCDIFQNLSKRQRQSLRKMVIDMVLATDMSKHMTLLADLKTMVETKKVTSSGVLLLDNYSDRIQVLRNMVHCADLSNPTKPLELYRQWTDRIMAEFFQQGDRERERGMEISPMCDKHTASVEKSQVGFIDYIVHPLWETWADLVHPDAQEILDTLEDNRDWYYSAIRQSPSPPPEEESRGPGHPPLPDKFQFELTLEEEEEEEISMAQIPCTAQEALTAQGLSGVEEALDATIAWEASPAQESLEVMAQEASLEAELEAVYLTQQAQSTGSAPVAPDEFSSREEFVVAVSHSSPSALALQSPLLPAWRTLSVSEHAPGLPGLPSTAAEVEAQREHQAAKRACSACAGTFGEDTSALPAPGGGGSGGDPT
Experiment [4] deals with Sodium-dependent dopamine transporter (Homo sapiens, UniProt Q01959).
Sequence of Sodium-dependent dopamine transporter (Q01959 whole entry): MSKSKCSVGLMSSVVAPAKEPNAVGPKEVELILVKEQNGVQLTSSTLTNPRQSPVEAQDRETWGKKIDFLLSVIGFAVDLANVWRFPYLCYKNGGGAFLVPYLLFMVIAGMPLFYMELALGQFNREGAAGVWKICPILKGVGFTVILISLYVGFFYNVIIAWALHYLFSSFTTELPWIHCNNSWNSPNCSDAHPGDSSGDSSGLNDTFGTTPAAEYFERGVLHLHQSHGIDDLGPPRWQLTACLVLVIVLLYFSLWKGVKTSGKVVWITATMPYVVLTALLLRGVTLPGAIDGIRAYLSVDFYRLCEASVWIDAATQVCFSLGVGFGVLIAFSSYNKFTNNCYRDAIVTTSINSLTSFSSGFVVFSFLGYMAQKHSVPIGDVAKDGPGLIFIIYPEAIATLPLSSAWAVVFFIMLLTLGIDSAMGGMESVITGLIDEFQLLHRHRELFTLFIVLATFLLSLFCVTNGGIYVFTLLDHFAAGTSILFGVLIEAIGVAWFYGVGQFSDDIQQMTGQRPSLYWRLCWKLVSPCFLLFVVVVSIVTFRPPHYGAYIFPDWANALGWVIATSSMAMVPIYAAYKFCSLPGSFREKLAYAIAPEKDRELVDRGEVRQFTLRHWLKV
Experiment [5] deals with T3, 5-hydroxytryptamine receptor 1A (Homo sapiens, UniProt P08908).
T3 sequence (P08908 whole entry): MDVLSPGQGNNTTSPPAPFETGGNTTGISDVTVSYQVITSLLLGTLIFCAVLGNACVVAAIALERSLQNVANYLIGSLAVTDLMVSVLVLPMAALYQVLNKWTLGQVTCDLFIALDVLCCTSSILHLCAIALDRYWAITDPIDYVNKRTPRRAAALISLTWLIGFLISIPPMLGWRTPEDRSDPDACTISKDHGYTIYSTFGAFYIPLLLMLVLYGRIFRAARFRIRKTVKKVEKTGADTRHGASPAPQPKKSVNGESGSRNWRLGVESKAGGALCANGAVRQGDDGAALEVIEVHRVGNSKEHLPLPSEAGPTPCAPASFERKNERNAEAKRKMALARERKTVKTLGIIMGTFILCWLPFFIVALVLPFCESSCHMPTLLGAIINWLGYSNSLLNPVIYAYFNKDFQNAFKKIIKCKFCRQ

The target in experiment [6] is T4, Alpha-2A adrenergic receptor (Homo sapiens, UniProt P08913).
T4 sequence (P08913 whole entry): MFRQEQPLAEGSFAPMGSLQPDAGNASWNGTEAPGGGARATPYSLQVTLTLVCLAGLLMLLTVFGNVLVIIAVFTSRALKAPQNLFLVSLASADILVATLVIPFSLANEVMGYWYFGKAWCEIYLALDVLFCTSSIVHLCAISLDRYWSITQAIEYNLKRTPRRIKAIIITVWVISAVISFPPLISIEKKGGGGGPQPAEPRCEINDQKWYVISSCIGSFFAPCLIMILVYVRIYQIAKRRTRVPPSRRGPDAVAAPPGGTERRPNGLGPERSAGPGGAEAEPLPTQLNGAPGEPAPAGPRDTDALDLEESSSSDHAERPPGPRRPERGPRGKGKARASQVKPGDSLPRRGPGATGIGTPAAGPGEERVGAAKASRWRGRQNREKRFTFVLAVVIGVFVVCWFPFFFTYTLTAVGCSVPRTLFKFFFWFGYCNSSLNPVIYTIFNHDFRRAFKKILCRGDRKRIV

The next experiment addresses T5, Estrogen receptor (Homo sapiens, UniProt P03372).
T5 sequence (P03372 whole entry): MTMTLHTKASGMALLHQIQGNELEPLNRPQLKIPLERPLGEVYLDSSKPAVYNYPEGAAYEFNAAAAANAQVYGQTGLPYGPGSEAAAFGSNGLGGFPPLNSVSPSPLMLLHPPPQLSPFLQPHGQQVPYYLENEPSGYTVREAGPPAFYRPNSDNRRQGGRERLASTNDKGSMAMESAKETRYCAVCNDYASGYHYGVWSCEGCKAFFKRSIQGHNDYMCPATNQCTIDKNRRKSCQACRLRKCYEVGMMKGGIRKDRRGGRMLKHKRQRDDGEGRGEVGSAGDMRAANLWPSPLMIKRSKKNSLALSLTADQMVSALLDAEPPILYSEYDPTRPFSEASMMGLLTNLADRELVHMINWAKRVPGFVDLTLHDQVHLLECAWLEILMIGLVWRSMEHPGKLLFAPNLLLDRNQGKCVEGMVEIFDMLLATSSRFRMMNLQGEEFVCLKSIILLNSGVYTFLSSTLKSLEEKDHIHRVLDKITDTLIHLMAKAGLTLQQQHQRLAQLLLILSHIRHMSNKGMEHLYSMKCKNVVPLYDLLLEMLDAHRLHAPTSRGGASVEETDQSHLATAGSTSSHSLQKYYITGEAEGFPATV
Note: assay procedure not described here.

Sequence of Voltage-gated inwardly rectifying potassium channel KCNH2 (Q12809 whole entry): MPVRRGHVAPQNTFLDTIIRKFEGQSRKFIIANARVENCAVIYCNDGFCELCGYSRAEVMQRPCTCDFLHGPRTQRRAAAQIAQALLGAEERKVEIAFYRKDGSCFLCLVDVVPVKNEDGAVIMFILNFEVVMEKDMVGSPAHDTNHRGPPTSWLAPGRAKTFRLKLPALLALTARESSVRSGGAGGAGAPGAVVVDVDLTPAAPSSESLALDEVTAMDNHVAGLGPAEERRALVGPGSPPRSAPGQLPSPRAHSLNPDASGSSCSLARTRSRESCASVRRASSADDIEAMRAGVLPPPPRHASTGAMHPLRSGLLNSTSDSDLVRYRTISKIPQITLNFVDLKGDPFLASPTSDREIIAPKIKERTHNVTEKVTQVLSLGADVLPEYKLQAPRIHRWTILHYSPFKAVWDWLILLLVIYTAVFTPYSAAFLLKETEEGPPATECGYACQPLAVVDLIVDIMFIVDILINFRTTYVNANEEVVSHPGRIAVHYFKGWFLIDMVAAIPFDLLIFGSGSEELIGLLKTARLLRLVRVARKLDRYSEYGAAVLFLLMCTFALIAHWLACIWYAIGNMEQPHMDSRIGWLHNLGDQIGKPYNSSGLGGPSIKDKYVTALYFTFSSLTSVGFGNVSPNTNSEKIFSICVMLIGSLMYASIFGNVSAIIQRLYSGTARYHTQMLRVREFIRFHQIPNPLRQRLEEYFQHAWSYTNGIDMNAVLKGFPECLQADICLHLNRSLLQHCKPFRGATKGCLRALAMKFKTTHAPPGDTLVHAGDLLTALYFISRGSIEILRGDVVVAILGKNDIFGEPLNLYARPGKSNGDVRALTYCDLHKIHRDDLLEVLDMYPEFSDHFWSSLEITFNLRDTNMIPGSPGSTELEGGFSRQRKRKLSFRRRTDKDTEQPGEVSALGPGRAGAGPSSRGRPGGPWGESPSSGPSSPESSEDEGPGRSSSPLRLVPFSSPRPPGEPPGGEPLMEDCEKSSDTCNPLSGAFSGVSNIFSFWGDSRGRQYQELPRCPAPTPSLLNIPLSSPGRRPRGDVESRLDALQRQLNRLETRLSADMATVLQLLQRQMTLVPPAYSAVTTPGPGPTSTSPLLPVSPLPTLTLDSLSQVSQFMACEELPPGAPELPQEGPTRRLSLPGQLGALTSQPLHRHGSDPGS
Sequence of D(3) dopamine receptor (P35462 whole entry): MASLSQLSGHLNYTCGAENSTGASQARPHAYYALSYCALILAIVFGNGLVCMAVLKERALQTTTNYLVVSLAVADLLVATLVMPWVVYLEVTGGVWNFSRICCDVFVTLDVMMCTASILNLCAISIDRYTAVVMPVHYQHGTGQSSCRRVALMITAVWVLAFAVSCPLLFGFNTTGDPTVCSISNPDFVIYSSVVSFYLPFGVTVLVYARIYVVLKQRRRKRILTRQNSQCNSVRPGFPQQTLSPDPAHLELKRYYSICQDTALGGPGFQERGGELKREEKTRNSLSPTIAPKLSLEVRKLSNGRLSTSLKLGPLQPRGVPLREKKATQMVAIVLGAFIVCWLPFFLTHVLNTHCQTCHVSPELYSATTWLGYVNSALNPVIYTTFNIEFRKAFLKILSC
Sequence of Histamine H3 receptor (Q9Y5N1 whole entry): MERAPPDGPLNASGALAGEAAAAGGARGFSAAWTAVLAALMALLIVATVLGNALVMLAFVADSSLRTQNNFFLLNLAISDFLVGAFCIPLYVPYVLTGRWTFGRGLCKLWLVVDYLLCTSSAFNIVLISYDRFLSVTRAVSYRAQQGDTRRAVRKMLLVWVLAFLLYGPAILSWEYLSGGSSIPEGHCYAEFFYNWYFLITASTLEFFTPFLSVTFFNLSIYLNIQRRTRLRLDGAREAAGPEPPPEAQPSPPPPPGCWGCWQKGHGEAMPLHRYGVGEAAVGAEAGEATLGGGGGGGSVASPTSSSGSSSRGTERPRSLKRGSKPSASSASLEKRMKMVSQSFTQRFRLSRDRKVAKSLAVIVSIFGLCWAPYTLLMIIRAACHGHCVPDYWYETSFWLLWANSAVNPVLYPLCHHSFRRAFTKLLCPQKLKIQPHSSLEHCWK
Sequence of D(1A) dopamine receptor (P21728 whole entry): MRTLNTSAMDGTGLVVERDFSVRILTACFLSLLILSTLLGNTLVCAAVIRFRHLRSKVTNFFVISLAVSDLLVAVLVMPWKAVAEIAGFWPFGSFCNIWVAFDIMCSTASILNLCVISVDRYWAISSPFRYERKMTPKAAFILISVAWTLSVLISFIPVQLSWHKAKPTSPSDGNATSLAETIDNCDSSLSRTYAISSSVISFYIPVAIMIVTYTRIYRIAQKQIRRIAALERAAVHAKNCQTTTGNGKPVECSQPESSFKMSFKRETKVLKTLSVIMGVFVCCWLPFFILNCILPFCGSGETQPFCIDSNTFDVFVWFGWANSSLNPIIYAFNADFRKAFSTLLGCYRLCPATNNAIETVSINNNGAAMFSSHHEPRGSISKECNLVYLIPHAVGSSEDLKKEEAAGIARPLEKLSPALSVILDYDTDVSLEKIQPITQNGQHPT
Sequence of Mu-type opioid receptor (P35372 whole entry): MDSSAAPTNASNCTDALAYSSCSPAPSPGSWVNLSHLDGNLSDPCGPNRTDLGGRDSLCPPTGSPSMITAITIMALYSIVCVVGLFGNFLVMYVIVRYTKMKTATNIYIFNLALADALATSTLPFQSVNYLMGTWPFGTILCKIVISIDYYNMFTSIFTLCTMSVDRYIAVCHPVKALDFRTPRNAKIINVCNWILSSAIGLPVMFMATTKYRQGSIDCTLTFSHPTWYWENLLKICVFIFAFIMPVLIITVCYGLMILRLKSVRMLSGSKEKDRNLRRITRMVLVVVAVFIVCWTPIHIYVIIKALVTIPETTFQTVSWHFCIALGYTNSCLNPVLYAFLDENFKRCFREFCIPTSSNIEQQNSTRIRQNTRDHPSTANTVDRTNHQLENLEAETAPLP

As usually defined, the AC50 is the midpoint of the concentration-response curve, whichever way the signal moves. As to `C[N+](C)(C)CC(=O)O` [BETAINE], in [1], the half-maximal activity concentration (AC50) is more than 30 µM.

Regarding `CCCC(=O)N1CCCN(c2nc(N)c3cc(OC)c(OC)cc3n2)CC1` [BUNAZOSIN], in [1], the AC50 came out at 4.5 µM.

For `Cn1cc[nH]c1=S` [METHIMAZOLE], the concentration at half-maximal activity (AC50) (on Thromboxane A2 receptor; in [2]; at Prothrombin; on Adenosine receptor A3; at D(3) dopamine receptor; in experiment [3]) was more than 30 µM throughout. Further, the AC50 (on D(1A) dopamine receptor; in [4]; at Histamine H3 receptor; in [5]; in experiment [6]; on Mu-type opioid receptor) was more than 30 µM each time. For the same molecule, on Estrogen receptor, the AC50 is more than 30 µM.

In the case of `CC(=O)N(CC(O)CO)c1c(I)c(C(=O)NCC(O)CO)c(I)c(C(=O)NCC(O)CO)c1I` (centres undefined) [IOHEXOL], the AC50 in [1] was more than 30 µM.

`CC(C)(N)Cc1ccc(Cl)cc1` [CHLORPHENTERMINE]: the concentration at half-maximal activity (AC50) in experiment [1] is more than 30 µM.

On to `CC(C(O)c1ccc(O)cc1)N1CCC(Cc2ccccc2)CC1` (centres undefined) [IFENPRODIL], for which the half-maximal activity concentration (AC50) in [1] is 0.67 µM.

On to `O=C1CCC(N2C(=O)c3ccccc3C2=O)C(=O)N1` (centres undefined) [THALIDOMIDE], for which the AC50 (at Thromboxane A2 receptor; in experiment [2]; at Prothrombin; at Adenosine receptor A3; on D(3) dopamine receptor; in experiment [3]) was more than 30 µM each time. Besides, the AC50 (on D(1A) dopamine receptor; in experiment [4]; at Histamine H3 receptor; in experiment [1]; in experiment [5]; in experiment [6]) was more than 30 µM in each case. In addition, on Mu-type opioid receptor, the activity was half-maximal at 0.202 µM (AC50).

Turning to `CC(C)NCC1CCc2cc(CO)c([N+](=O)[O-])cc2N1` (centres undefined) [OXAMNIQUINE], the AC50 in [1] is more than 30 µM.

Take `CN(C)[C@@H]1C(O)=C(C(N)=O)C(=O)[C@@]2(O)C(O)=C3C(=O)c4c(O)ccc(Cl)c4[C@@H](O)[C@H]3C[C@@H]12` [DEMECLOCYCLINE]: the half-maximal activity concentration (AC50) in experiment [1] is more than 30 µM.

`NS(=O)(=O)c1cc(-c2nnn[nH]2)c(NCc2cccs2)cc1Cl` [AZOSEMIDE]: the half-maximal activity concentration (AC50) in experiment [1] was more than 30 µM.

`Cc1c(O)cccc1C(=O)N[C@@H](CSc1ccccc1)[C@H](O)CN1C[C@H]2CCCC[C@H]2C[C@H]1C(=O)NC(C)(C)C`: the half-maximal activity concentration (AC50) at Thromboxane A2 receptor is 13.2 µM; in [2], more than 30 µM; at Prothrombin it was more than 30 µM; at Adenosine receptor A3, 2.84 µM; on D(3) dopamine receptor, more than 30 µM; in experiment [3] it was more than 30 µM. The half-maximal activity concentration (AC50) in [4] was 23.1 µM; at Histamine H3 receptor, more than 30 µM; in [1], more than 30 µM; in experiment [5] it was more than 30 µM; in experiment [6] it was more than 30 µM; at Mu-type opioid receptor, 15.3 µM.

Regarding `C=C1C[C@@H]2[C@H](CC[C@]3(C)C(=O)CC[C@@H]23)[C@@]2(C)C=CC(=O)C=C12` [EXEMESTANE], in [1], the AC50 is more than 30 µM.

With `C[C@@H]1C[C@H]2[C@@H]3CCC4=CC(=O)C=C[C@]4(C)[C@@]3(F)[C@@H](O)C[C@]2(C)[C@H]1C(=O)CO` [DESOXIMETASONE], the half-maximal activity concentration (AC50) (on Thromboxane A2 receptor; in experiment [2]; at Prothrombin; at Adenosine receptor A3; at D(3) dopamine receptor; in experiment [3]) was more than 30 µM each time. In addition, the AC50 (at D(1A) dopamine receptor; in experiment [4]; at Histamine H3 receptor; in experiment [1]; in experiment [5]; in experiment [6]) was more than 30 µM throughout. In addition, the AC50 on Mu-type opioid receptor was more than 30 µM.

In the case of `CC(=O)N[C@H]1[C@H]([C@H](O)[C@H](O)CO)OC(C(=O)O)=C[C@@H]1N=C(N)N` [ZANAMIVIR], the concentration at half-maximal activity (AC50) in experiment [1] was more than 30 µM.

As for `N[C@@H](CSCC(=O)O)C(=O)O` [CARBOCYSTEINE], the half-maximal activity concentration (AC50) in experiment [1] was more than 30 µM.

With `NS(=O)(=O)c1cc(Cl)c(Cl)c(S(N)(=O)=O)c1` [DICHLORPHENAMIDE], in experiment [1], the half-maximal activity concentration (AC50) is more than 30 µM.

With `CN(CCCN1c2ccccc2CCc2ccccc21)CC(=O)c1ccc(Cl)cc1` [LOFEPRAMINE], the AC50 in experiment [1] amounted to 3.3 µM.

In the case of `CN(C)CCCN1c2ccccc2Sc2ccccc21` [PROMAZINE], the concentration at half-maximal activity (AC50) in experiment [1] turned out to be 8.1 µM.

For `CN(C/C=C/c1ccccc1)Cc1cccc2ccccc12` [NAFTIFINE], the half-maximal activity concentration (AC50) in experiment [1] turned out to be 2.02 µM.

Regarding `CC(=O)O[C@]1(C(C)=O)CC[C@H]2[C@@H]3C[C@H](C)C4=CC(=O)CC[C@]4(C)[C@H]3CC[C@@]21C` [MEDROXYPROGESTERONE ACETATE], the half-maximal activity concentration (AC50) (on Thromboxane A2 receptor; in [2]; at Prothrombin; on D(3) dopamine receptor; in experiment [3]; at D(1A) dopamine receptor) was more than 30 µM throughout. For the same molecule, the AC50 (in experiment [4]; at Histamine H3 receptor; in [1]; in experiment [5]; in experiment [6]; on Mu-type opioid receptor) was more than 30 µM each time.

`Oc1cccc2cccnc12` [OXYQUINOLINE]: the AC50 (on Thromboxane A2 receptor; in [2]; on Prothrombin; at Adenosine receptor A3; at D(3) dopamine receptor; in experiment [3]) was more than 30 µM throughout. For the same molecule, the concentration at half-maximal activity (AC50) (on D(1A) dopamine receptor; in experiment [4]; on Histamine H3 receptor; in experiment [5]; in [6]; on Mu-type opioid receptor) was more than 30 µM in each case.

With `O=P(O)(O)C(O)(Cc1cccnc1)P(=O)(O)O` [RISEDRONIC ACID], in experiment [1], the AC50 was more than 30 µM.

For `CO[C@@]12[C@H](COC(N)=O)C3=C(C(=O)C(C)=C(N)C3=O)N1C[C@@H]1N[C@@H]12` [MITOMYCIN], the concentration at half-maximal activity (AC50) (on Thromboxane A2 receptor; in [2]; on Prothrombin; on Adenosine receptor A3; at D(3) dopamine receptor; in [3]) was more than 30 µM in each case. Besides, the AC50 (on D(1A) dopamine receptor; in experiment [4]; at Histamine H3 receptor; in experiment [5]; in experiment [6]; at Mu-type opioid receptor) was more than 30 µM each time.

Turning to `C[N+](C)(C)CCOC(N)=O` [CARBAMOYLCHOLINE], the AC50 in experiment [1] is more than 30 µM.

For the origin of these results see ChEMBL document CHEMBL5291721, “A preclinical secondary pharmacology resource illuminates target-adverse drug reaction associations of marketed drugs” (Nat Commun, 2023).
